From US20240425492A1, “POLYMORPHS AS ERBB INHIBITORS” (Black Diamond Therapeutics, Inc., priority 2021, published 2024)
Converted amounts (≈) assume the structure as drawn.

Experiments:
[1] = Hygroscopicity by DVS at 25° C.; type: physicochemical; settings: for Desorp. (%) / Sorp. (%): DVS 25° C.
Procedure: Dynamic Vapor Sorption (DVS): DVS analysis was performed using Intrinsic. Analysis was performed using parameters as set forth below.
The hygroscopicity for Form C and Form F was examined. See, e.g., Table E.

[2] = Bulk stability under accelerated storage conditions (XRPD and HPLC); settings: for Bulk (XRPD) / Purity, Bulk (HPLC): Solid state
From the text: Solids obtained after bulk stability study were characterized by XRPD and HPLC.

[3] = Solubility study in aqueous media at 37° C. (HPLC of supernatants, pH); settings: for solubility / solubility at 2 h / solubility at 24 h: 37 °C, thermodynamic from solid
Procedure: 2.01 mg of the free base Form C (equal to 2 mg free base after correction for water content) was weighed into 2 mL vial. 2.09 mg of the free base Form F (equal to 2 mg free base after correction for water content) was weighed into a 2 mL vial. I mL of aqueous media was added, respectively. These suspensions were stirred at 37° C. at a rate of 400 rpm. These suspensions were taken out after 2 h and 24 h, and then centrifuged at 14,000 rpm for 5 minutes. The supernatants were analyzed by HPLC. The pH of the supernatants were tested.

[4] = 25° C./92.5% RH in an open vial, 2 weeks
[5] = 25° C./92.5% RH in an open vial, 4 weeks
[6] = 40° C./75% RH in an open vial, 2 weeks
[7] = 40° C./75% RH in an open vial, 4 week
[8] = 60° C., tight container, 2 weeks
[9] = 60° C., tight container, 4 weeks
[10] = SGF, pH 2, simulated gastric fluid
[11] = pH 1.0 HCl solution (0.1N), pH 1, simulated gastric fluid
[12] = pH 4.5 acetate buffer (50 mM), pH 4.5, aqueous buffer
[13] = pH 6.8 phosphate buffer (50 mM), pH 6.8, aqueous buffer

- DVS water uptake at 90% RH ([1]; 25° C., dm/dt = 0.002%): 1.6% water uptake at 90% RH
- DVS water uptake at 95% RH ([1]; 25° C., dm/dt = 0.002%): 2.3% water uptake at 95% RH
- Desorp. (%) ([1]; Relative Humidity 0%, first Desorp.): 0.2%
- Sorp. (%) ([1]; Relative Humidity 0%, first Sorp.): 0.2%
- Desorp. (%) ([1]; Relative Humidity 0%, second Desorp.): 0.0%
- Sorp. (%) ([1]; Relative Humidity 0%, second Sorp.): 0.0%
- Desorp. (%) ([1]; Relative Humidity 10%, first Desorp.): 0.3%
- Sorp. (%) ([1]; Relative Humidity 10%, first Sorp.): 0.2%
- Desorp. (%) ([1]; Relative Humidity 10%, second Desorp.): 0.1%
- Sorp. (%) ([1]; Relative Humidity 10%, second Sorp.): 0.1%
- Desorp. (%) ([1]; Relative Humidity 20%, first Desorp.): 0.4%
- Sorp. (%) ([1]; Relative Humidity 20%, first Sorp.): 0.3%
- Desorp. (%) ([1]; Relative Humidity 20%, second Desorp.): 0.2%
- Sorp. (%) ([1]; Relative Humidity 20%, second Sorp.): 0.2%
- Desorp. (%) ([1]; Relative Humidity 30%, first Desorp.): 0.5%
- Sorp. (%) ([1]; Relative Humidity 30%, first Sorp.): 0.4%
- Desorp. (%) ([1]; Relative Humidity 30%, second Desorp.): 0.3%
- Sorp. (%) ([1]; Relative Humidity 30%, second Sorp.): 0.3%
- Desorp. (%) ([1]; Relative Humidity 40%, first Desorp.): 0.5%
- Sorp. (%) ([1]; Relative Humidity 40%, first Sorp.): 0.4%
- Desorp. (%) ([1]; Relative Humidity 40%, second Desorp.): 0.4%
- Sorp. (%) ([1]; Relative Humidity 40%, second Sorp.): 0.3%
- Sorp. (%) ([1]; Relative Humidity 50%, first Sorp.): 0.5%
- Desorp. (%) ([1]; Relative Humidity 50%, second Desorp.): 0.6%
- Sorp. (%) ([1]; Relative Humidity 60%, first Sorp.): 0.6%
- Desorp. (%) ([1]; Relative Humidity 60%, second Desorp.): 1.1%
- Sorp. (%) ([1]; Relative Humidity 70%, first Sorp.): 0.8%
- Desorp. (%) ([1]; Relative Humidity 70%, second Desorp.): 1.4%
- Sorp. (%) ([1]; Relative Humidity 80%, first Sorp.): 1.2%
- Desorp. (%) ([1]; Relative Humidity 80%, second Desorp.): 1.7%
- Sorp. (%) ([1]; Relative Humidity 90%, first Sorp.): 1.8%
- Desorp. (%) ([1]; Relative Humidity 90%, second Desorp.): 2.2%
- Sorp. (%) ([1]; Relative Humidity 95%, first Sorp.): 2.5%
- Desorp. (%) ([1]; Relative Humidity 95%, second Desorp.): 2.5%
- XRPD after DVS test ([1]; DVS at 25° C.): No form change
- HPLC area Purity ([2]; 1 Month, 5° C.): 98.2%
- Water content ([2]; 1 Month, 5° C.): 0.5%
- impurity RRT0.967 ([2]; 1 Month, 5° C.): 0.07%
- impurity RRT0.971 ([2]; 1 Month, 5° C.): 0.08%
- impurity RRT1.20 ([2]; 1 Month, 5° C.): 0.06%
- impurity RRT1.24 ([2]; 1 Month, 5° C.): 1.4%
- impurity RRT1.26 ([2]; 1 Month, 5° C.): 0.13%
- impurity RRT1.28 ([2]; 1 Month, 5° C.): 0.11%
- HPLC area Purity ([2]; 1 Month, 25° C./60% RH): 98.2
- Water content ([2]; 1 Month, 25° C./60% RH): 0.4%
- impurity RRT0.967 ([2]; 1 Month, 25° C./60% RH): 0.07%
- impurity RRT0.971 ([2]; 1 Month, 25° C./60% RH): 0.08%
- impurity RRT1.20 ([2]; 1 Month, 25° C./60% RH): 0.06%
- impurity RRT1.24 ([2]; 1 Month, 25° C./60% RH): 1.4%
- impurity RRT1.26 ([2]; 1 Month, 25° C./60% RH): 0.13%
- impurity RRT1.28 ([2]; 1 Month, 25° C./60% RH): 0.11%
- HPLC area Purity ([2]; 1 Month, 40° C./75% RH): 98.2%
- Water content ([2]; 1 Month, 40° C./75% RH): 0.7%
- impurity RRT0.967 ([2]; 1 Month, 40° C./75% RH): 0.08%
- impurity RRT0.971 ([2]; 1 Month, 40° C./75% RH): 0.08%
- impurity RRT1.20 ([2]; 1 Month, 40° C./75% RH): 0,07%
- impurity RRT1.24 ([2]; 1 Month, 40° C./75% RH): 1.4%
- impurity RRT1.26 ([2]; 1 Month, 40° C./75% RH): 0.13%
- impurity RRT1.28 ([2]; 1 Month, 40° C./75% RH): 0.11%
- HPLC area Purity ([2]; Initial): 98.1
- Water content ([2]; Initial): 0.4%
- impurity RRT0.967 ([2]; Initial): 0.09%
- impurity RRT0.971 ([2]; Initial): 0.06%
- impurity RRT1.20 ([2]; Initial): 0.06%
- impurity RRT1.24 ([2]; Initial): 1.4%
- impurity RRT1.26 ([2]; Initial): 0.13%
- impurity RRT1.28 ([2]; Initial): 0.12%
- impurity RrRT1.12 ([2]; Initial): 0.05%
- polymorph ([2]; Initial): Form C
- Bulk (XRPD) [2, 4]: No form change
- Purity, Bulk (HPLC) [2, 4]: 96.6%
- Bulk (XRPD) [2, 5]: No form change
- Purity, Bulk (HPLC) [2, 5]: 96.4%
- Bulk (XRPD) [2, 6]: No form change
- Purity, Bulk (HPLC) [2, 6]: 95.5%
- Bulk (XRPD) [2, 7]: No form change
- Purity, Bulk (HPLC) [2, 7]: 94.6%
- Bulk (XRPD) [2, 8]: No form change
- Purity, Bulk (HPLC) [2, 8]: 95.5%
- Bulk (XRPD) [2, 9]: No form change
- Purity, Bulk (HPLC) [2, 9]: 93.3%
- form change after bulk stability study (XRPD) ([2]; three accelerated conditions, two weeks and four weeks): do not change forms
- stability in FaSSIF-v1 ([3]; 37° C., FaSSIF-v1): degraded
- stability in FeSSIF-v1 ([3]; 37° C., FeSSIF-v1): degraded
- 2 h Solubility ([3]; FaSSIF-v1, pH 6.5, 37° C.): Degradation
- 24 h Solubility ([3]; FaSSIF-v1, pH 6.5, 37° C.): Degradation
- 2 h Solubility ([3]; FeSSIF-v1, pH 5.0, 37° C.): Degradation
- 24 h Solubility ([3]; FeSSIF-v1, pH 5.0, 37° C.): Degradation
- solubility [3, 10]: > 2000 µg/mL
- solubility at 2 h [3, 10]: > 2000 µg/mL
- solubility at 24 h [3, 10]: > 2000 µg/mL
- 24 h (pH) of supernatant ([3]; SGF, pH 2.0, 37° C.): pH 3.7
- 24 h (pH) of supernatant ([3]; Water, 37° C.): pH 7.4
- 24 h (pH) of supernatant ([3]; pH 1.0 (0.1N HCl), 37° C.): pH 1.0
- solubility at 2 h [3, 11]: > 2000 µg/mL
- solubility at 24 h [3, 11]: > 2000 µg/mL
- solubility ([3]; pH 1.0 HCl solution, pH 1, simulated gastric fluid): > 2000 µg/mL
- 24 h (pH) of supernatant ([3]; pH 4.5 (50 mM) acetate buffer, 37° C.): pH 4.5
- solubility [3, 12]: > 2000 µg/mL
- solubility at 2 h [3, 12]: 2000 µg/mL (≈ 3560 µM)
- solubility at 24 h [3, 12]: > 2000 µg/mL
- 24 h (pH) of supernatant ([3]; pH 6.8 (50 mM) phosphate buffer, 37° C.): pH 6.7
- solubility [3, 13]: ~20 µg/mL (≈ 35.6 µM)
- solubility at 2 h [3, 13]: 20.4 µg/mL (≈ 36.4 µM)
- solubility at 24 h [3, 13]: 16.5 µg/mL (≈ 29.4 µM)
- solubility ([3]; pure water, water): < 10 µg/mL
- solubility at 2 h ([3]; water): 1.6 µg/mL (≈ 2.85 µM)
- solubility at 24 h ([3]; water): 2 µg/mL (≈ 3.56 µM)
SMILES: CN1C[C@H]2C[C@@]2(C#Cc2cc3ncnc(Nc4cccc(Cl)c4F)c3cc2NC(=O)/C=C/CN2CCOCC2)C1 [Form C]
